Measured values from patent US20180326022A1, “COMPOSITIONS AND METHODS FOR IMPROVING HEART FUNCTION AND TREATING HEART FAILURE” (The Trustees of the University of Pennsylvania, priority 2017, published 2018).

How the values were obtained:
rat adult cardiomyocytes = test: Immunofluorescence quantification of α- and dTyr-tubulin fraction of cell area; type: cell-based
Experimental: (§1) Viral constructs were permitted to express for 24-72 hours with Moi=100-200. Parthenolide (Fisher Scientific NC9013142) treatment was carried out at room temperature for 2 hours at 10 μM. All experiments were performed within 48 hours of isolation, except those involving shTTL, which were allowed 72 hours to improve knockdown efficiency.
Cells were fixed in 4% PFA for 15 minutes and permeabilized in 0.5% TritonX-100 for 4 minutes at room temperature. Alternately cells were fixed in methanol at −20° C. for 7 minutes. After washing, cells were placed in blocking buffer (5% BSA and 0.1% TritonX-100 in PBS) for 1 hour, then labeled with primary antibodies (below) for 24-48 hours at 4° C. Cells were then washed 4× in blocking buffer, labeled with secondary antibodies (below) at room temperature and washed 3× in blocking buffer. Stained cells were mounted on mouse laminin coated #1.5 coverslips in Prolong Gold Antifade Mountant (Life Technologies P36934) for imaging.
(§2) Confocal imaging was carried out on a Zeiss 780 laser scanning confocal scan head operating on an Axiovert Z1 inverted microscope equipped with a 40× oil 1.4 NA objective. High-speed super resolution imaging was carried out on a Zeiss 880 Airyscan confocal with a 63×1.4 oil NA objective (FIG. 8A-FIG. 8E, Airyscan application note can be found at http://www.zeiss.com/microscopy/enus/products/confocal-microscopes/Ism-880-with-airyscan-.html#downloads). Image analysis was performed using ZEN Black software for Airyscan processing, which involves signal integration from the 32 separate sub-resolution detectors in the Airyscan detector and subsequent deconvolution of this integrated signal (FIG. 8A-FIG. 8E). Additional signal processing was performed in Image J (NIH). For calculating the microtubule fraction of cell area (FIG. 2B-FIG. 2C), image analysis was performed blinded to the experimental treatment groups. A 1.5 μm max intensity projection was produced from 3 0.5 μm confocal z-sections. […] From the resulting binary images (FIG. 9B), the microtubule positive fraction of the total cell area was calculated for alpha and detyrosinated tubulin (FIG. 2C).

desmin = test: Microtubule co-sedimentation with desmin; type: cell-based; conditions: after PTL treatment; rat cardiomyocytes and C2C12 cells
Experimental: Microtubules were isolated for co-sedimentation from isolated cardiomyocytes or C2C12 cells following treatment with parthenolide. Cells were homogenized at 37° C. in 400 μl of microtubule-stabilizing buffer (MSB) by passage through 25G syringe needle. Homogenate was centrifuged to remove cell debris at 2000×g for 5 min at 37° C. and pellet was resuspended in RIPA buffer containing 5 mM CaCl2. Supematant containing free and polymerized tubulin was loaded on a cushion of 10% sucrose in MSB and centrifuged in SW-60 rotor at 100000×g for 30 min at 37° C. Supernatant was saved, pellet (polymerized MT fraction) was resuspended in 0° C. RIPA buffer containing 5 mM CaCl2 and incubated on ice for 10 min. All samples were then centrifuged at 14000×g for 5 min at 0° C. and supernatant was measured by Bradford assay against a BSA (Sigma) standard and boiled in 12-40 μl of 1× loading buffer (Li-COR, 928-40004) prior to western blotting.

[1] = tested on: microtubules in contracting cardiomyocytes; test: Microtubule buckling in contracting cardiomyocytes (Airyscan imaging); type: cell-based, rat
Experimental: as §2
Analysis of buckling parameters was performed on 1-8 microtubules per image series. Analysis was done blind to the experimental condition and, where possible, followed a microtubule selected from resting frames to avoid biased selection of microtubules that buckled during contraction. A centerline was drawn along the axis of the microtubule and the maximum distance to the edge of the microtubule was recorded as the amplitude (FIG. 1G, red). MTs were further analyzed by recording the distance between 2 consecutive inflection points (FIG. 1G, yellow) as half the wavelength. This short metric was selected instead of full wavelength to maximize inclusion of microtubules for which labeling or z-displacement prevented inclusion of a full cycle in the image.

[2] = tested on: cardiac and skeletal muscle; conditions: 10 μM; refs (13), (8); cited from earlier work
desmin KO myocytes = test: AFM viscoelasticity, desmin KO mouse myocytes; type: cell-based; conditions: KO + PTL
Experimental: Animal care and procedures were approved and performed in accordance with the standards set forth by the University of Pennsylvania Institutional Animal Care and Use Committee and the Guide for the Care and Use of Laboratory Animals published by the US National Institutes of Health. Desmin knockout mice and WT littermates were provided by Dr. Robert Bloch and have been previously characterized (36). Experiments were performed blinded to genotype.
as §1
The elastic modulus of isolated cardiomyocytes was measured using AFM indentation. Optical microscopy and AFM were performed simultaneously using an MFP3D AFM (Asylum Research) combined with an inverted Nikon TE-2000U microscope equipped with a Nikon 100×, 1.49 NA objective. TTL expression was determined by dsRED fluorescence captured via 532 nm laser excitation (CrystaLaser) and a CCD camera (Cascade-512B, Photometrics) at 900 ms exposure time controlled through the NIS Elements software package. […] Modulus characterization of myocytes was performed using 4.26 μm radius (R below) SiO2 microparticle epoxied to SiN cantilevers with nominal spring constant 0.03 N/m (CP-PNPS-SiO-A, Nano And More, USA). Cantilever spring constants were manually calibrated in air by thermal vibrations using the MFP3D prior to each experiment using a clean glass substrate. Inverse optical lever sensitivity was determined in myocyte buffer solution prior to each round of measurements.
E is the elastic modulus, υ, is the cell Poisson ratio and δ is the indentation depth. Transverse compression of the cardiomyocyte is performed over a range of indentation speeds and the indentation speed is divided by the total indentation depth to obtain an effective indentation rate, f. […]

[3] = rat cardiomyocytes, thresholded immunofluorescence, TTL vs null, PTL vs ctrl

In the case of `C=C1C(=O)O[C@H]2[C@H]1CC/C(C)=C/CC[C@@]1(C)O[C@@H]21` [PTL, 4,5-epoxygermacra-1(10),11(13)-dien-12,6-olactone], the “effect on MT network density” value (rat adult cardiomyocytes; PTL treatment) is reported as “no effect”, the “reduction in the amount/fraction of polymerized, detyrosinated MTs” value (rat adult cardiomyocytes; isolated rat cardiomyocytes, immunofluorescence and immunoblot) is reported as 2 fold and the “Detyr (% cell area)” value (rat adult cardiomyocytes; [3]) is reported as 30.8 % cell area. The “α-tub (% cell area)” value (rat adult cardiomyocytes; [3]) was 67.8 % cell area, the “amount of desmin associated with the MTs” value (desmin) was “directly proportional to the amount of MT detyrosination” and the “Amp (Δ)” value ([1]; amplitude change on same followed MT between rest and contraction) was 0.078. The “Amp Contract” value ([1]; buckling amplitude, contracted cardiomyocytes) was 0.212, the “Amp Rest” value ([1]; buckling amplitude, resting cardiomyocytes) was 0.134 and the “N Buckled” value ([1]; number of buckled microtubules, N microtubules 24 (Parth) and 62 (TTL)) was 9. For the same compound, the occurrence of buckling ([1]; vs control myocytes) was “fell significantly”, the effect on microtubules [2] was “suppresses detyrosination” and the “E1 (Pa)” value (desmin KO myocytes) was 429.76 Pa. The “E2 (Pa)” value (desmin KO myocytes) was 512.2 Pa and the “η (Pa*s)” value (desmin KO myocytes) was 27.4 Pa*s.
